{"source": "patent US20040202732A1", "about": "“Composition to promote weight loss” (priority 2003, published 2004)", "origin": "cited, not measured here", "key": {"[1]": {"tested_on": "prostaglandin E2 production"}, "[2]": {"settings": "12 weeks, fifty-three healthy men and women"}, "[3]": {"settings": "4-week treatment"}, "[4]": {"settings": "12 weeks, 3.4-g and higher CLA groups, sixty overweight or obese subjects"}, "[5]": {"settings": "mice fed CLA supplemented diets for 28 days"}, "[6]": {"settings": "three daily doses for 2 weeks, exercise 90 minutes three times weekly"}, "[7]": {"settings": "caffeine administration alone"}}}
{"compound": "O=C(O[C@@H]1Cc2c(O)cc(O)cc2O[C@@H]1c1cc(O)c(O)c(O)c1)c1cc(O)c(O)c(O)c1", "note": "[EGCG, epigallocatechin galate]", "values": [{"measurement": "inhibition of prostaglandin E2 production", "setting": "[1]", "result": "can inhibit"}, {"measurement": "inhibition of TNF-alpha", "setting": "TNF-alpha", "result": "can inhibit"}]}
{"compound": "Conjugated Linoleic Acid [CLA]", "values": [{"measurement": "inhibition of IL-1", "setting": "IL-1", "result": "can inhibit"}, {"measurement": "decrease of proportion of body fat", "setting": "[2]", "result": 3.8, "unit": "%"}, {"measurement": "inhibition of prostaglandin E2 production", "setting": "[1]", "result": "can inhibit"}, {"measurement": "reduction from waistlines", "setting": "[3]; average", "result": "an average of one-inch reduction"}, {"measurement": "sagittal abdominal diameter (SAD)", "setting": "[3]; twenty-five men with significant abdominal fat", "result": "significant reduction"}, {"measurement": "body fat mass (BFM)", "setting": "[4]", "result": "significant reduction"}, {"measurement": "body mass", "setting": "[5]", "result": "maintained body mass"}, {"measurement": "increase of body protein", "setting": "[5]", "result": "up to 13%"}, {"measurement": "reduction of body fat", "setting": "[5]", "result": "up to 60%"}, {"measurement": "body weight loss", "setting": "[6]", "result": "no effects"}, {"measurement": "body fat", "setting": "[6]; versus placebo", "result": "significantly reduced"}]}
{"compound": "Cn1c(=O)c2c(ncn2C)n(C)c1=O", "note": "[caffeine]", "values": [{"measurement": "increased resting energy expenditure and fat oxidation", "setting": "[7]", "result": "did not occur"}]}
